Reference: US20210087290A1, “COMPOUNDS WHICH SPECIFICALLY BIND TO CD38 FOR USE IN THE TREATMENT OF NEURODEGENERATIVE AND INFLAMMATORY DISEASES” (ENCEFA, priority 2017, published 2021)

Columns and labels:
dopaminergic neurons = test: Prevention of dopaminergic neurons cell death (summary statement); type: cell-based
[1] = system: midbrain DA (TH^+) neurons; test: Spontaneous and progressive dopaminergic (DA) cell death in midbrain cultures; type: cell-based, Wistar rat; conditions: NAD^+ 3 mM, antibodies 1 μg/mL
Procedure: (§1) Animals were treated in accordance with the Guide for the Care and Use of Laboratory Animals (National Research Council, 1996), European Directive 86/609, and the guidelines of the local institutional animal care and use committee. Cultures were prepared from the ventral mesencephalon of gestational age 15.5 Wistar rat embryos (Janvier Breeding Center, Le Genest St Isle, France). Dissociated cells in suspension obtained by mechanical trituration of midbrain tissue pieces were seeded at a density of 1.2-1.5 10^5 cells/cm^2 onto tissue culture supports precoated with 1 mg/mL polyethylenimine diluted in borate buffer pH 8.3 as described (Michel et al., 1997. J Neurochem. 69(4):1499-507). […] They were fed daily by replacing 70% of the medium. Routinely, mesencephalic cultures were established on Nunc 24-well culture plates (Thermofischer Scientific, Rochester, N.Y.). Note that these cultures contain tyrosine hydroxylase (TH)^+ neurons that were exclusively dopaminergic (Traver et al., 2006. Mol Pharmacol. 70(1):30-40). TH^+ neurons represented approximately 1-2% of the total number of neuronal cells present in these cultures. The evaluation of the survival of DA neurons was performed by counting cells immunopositive for TH as described (Toulorge et al., 2011. Faseb J. 25(8):2563-73).
We used a model system in which DA cell loss was spontaneous. […]

DA (TH^+) neurons [2] = test: GDNF withdrawal model in midbrain cultures; conditions: GDNF 20 ng/mL for 10 DIV, deprived 11-15 DIV; NAD^+ 3 mM, antibodies 1 μg/mL
Excerpt: They were fed daily by replacing 70% of the medium. Routinely, mesencephalic cultures were established on Nunc 24-well culture plates (Thermofischer Scientific, Rochester, N.Y.). […] TH^+ neurons represented approximately 1-2% of the total number of neuronal cells present in these cultures.
To evaluate the efficacy of our compounds in a more mature population of DA neurons, we also used a variation of the previous model system. More precisely, spontaneous DA cell death was prevented up to 10 DIV by a chronic treatment with GDNF (20 ng/mL) to favor the maturation of healthy DA neurons. Then, DA cell death was triggered by total withdrawal of GDNF for the next 5 days.
The cultures were fixed for 12 min using 4% formaldehyde in Dulbecco's phosphate-buffered saline (PBS), then washed twice with PBS before an incubation step at 4° C. for 24 h with the following antibodies. A monoclonal anti-TH antibody diluted 1/5000 (ImmunoStar, Inc., Hudson, Wis.) or a polyclonal anti-TH antibody diluted 1/1000 (US Biologicals, Salem, Mass.) was used to assess the survival of DA neurons. […] All antibodies were diluted in PBS containing 0.2% Triton X-100, except the mouse anti-Ibal which was diluted in PBS only.

cortical neurons [3] = test: Measurement of glucose uptake in cortical neurons (2-NBDG); type: cell-based, Wistar rat; conditions: acute treatment 30 min, 7 DIV; HB7 1 μg/mL, NAD^+ 3 mM, insulin 100 nM
Procedure: In brief, cultures grown for 7 days were incubated with 2-NBDG (300 μM) for 30 min at 37° C. in the presence of test compounds in glucose-free N5 medium, washed twice to remove excess indicator, and then left to recover for 30 min before assessment. The fluorescent signal (excitation, 465 nm; emission, 540 nm) was acquired using an Arrayscan (ThermoFischer Scientific) and quantified using ImageJ. The average pixel intensity over the surface of each cell body was determined under the different experimental conditions. Background fluorescence was subtracted from raw data, and the results were expressed as a percentage of mean fluorescence intensity per cell under control conditions. 100 cells were analysed under each test condition.

cortical neurons [4] = test: Oxidative stress model (H2O2) in cortical cultures; type: cell-based, Wistar rat; conditions: H2O2 75 μM between 12 and 14 DIV; NAD^+ 3 mM, antibodies 1 μg/mL
Procedure: (§2) Animals were treated in accordance with the Guide for the Care and Use of Laboratory Animals (National Research Council, 1996), European Directive 86/609, and the guidelines of the local institutional animal care and use committee. Cultures were prepared from the cortex of gestational age 15.5 Wistar rat embryos (Janvier Breeding Center, Le Genest St Isle, France). Dissociated cells in suspension obtained by mechanical trituration of cortical tissue pieces were seeded onto tissue culture supports precoated with 1 mg/mL polyethylenimine diluted in borate buffer pH 8.3 according to the protocol previously described for mesencephalic cultures. […] They were fed daily by replacing 70% of the medium. Routinely, cortical cultures were established on Nunc 24-well culture plates (Thermofischer Scientific, Rochester, N.Y.).
H2O2 (75 μM) was added to cortical cultures between 12 and 14 DIV in the presence or the absence of potential neuroprotective molecules. The cultures were then fixed in formaldehyde and immunostained using anti-MAP-2 antibody. The area occupied by MAP-2′ neurons was assessed using ImageJ.
(§3) The cultures were fixed for 12 min using 4% formaldehyde in Dulbecco's phosphate-buffered saline (PBS), then washed twice with PBS before an incubation step at 4° C. for 24 h with the following antibodies. […]

DA (TH^+) neurons [5] = test: MPP^+ intoxication model, DA cell survival in midbrain cultures; type: cell-based, Wistar rat
Procedure: as §1
Treatments with MPP^+ were performed in cultures where the spontaneous death process was prevented by long-term exposure to depolarizing concentrations of K^+ (30 mM), in the presence of the glutamate receptor antagonist MK801 (5 μM) to prevent unwanted excitotoxic insults as described previously (Douhou et al., 2001. J Neurochem. 78(1):163-74). Treatments with MPP^+ and potential neuroprotective molecules were carried out between 5 and 7 DIV. The number of microglial cells was evaluated in this same model since MPP^+ is known to induce microglial proliferation (Henze et al., 2005. J Neurochem. 95(4):1069-77).
The cultures were fixed for 12 min using 4% formaldehyde in Dulbecco's phosphate-buffered saline (PBS), then washed twice with PBS before an incubation step at 4° C. for 24 h with the following antibodies. A monoclonal anti-TH antibody diluted 1/5000 (ImmunoStar, Inc., Hudson, Wis.) or a polyclonal anti-TH antibody diluted 1/1000 (US Biologicals, Salem, Mass.) was used to assess the survival of DA neurons. A monoclonal anti-MAP2 antibody diluted at 1/250 (clone AP20, Sigma-Aldrich) was used to assess the survival of cortical neurons. Microglial cells were characterized using a mouse anti-Ibal antibody (1/50; clone MRC OX-42; Pharmingen, BD Biosciences, Le Pont-de-Claix, France). All antibodies were diluted in PBS containing 0.2% Triton X-100, except the mouse anti-Ibal which was diluted in PBS only. Detection of the primary antibodies was performed with an Alexa Fluor-488 conjugate of an anti-mouse IgG antibody or with an Alexa Fluor-555 conjugate of an anti-rabbit antibody (1:500).

cortical neurons [6] = test: Excitotoxicity model (glutamate) in cortical cultures; type: cell-based, Wistar rat; conditions: glutamate 75 μM between 12 and 14 DIV; NAD^+ 3 mM, antibodies 1 μg/mL
Procedure: as §2
Glutamate (75 μM) was added to cortical cultures between 12 and 14 DIV in the presence or the absence of potential neuroprotective treatments. The cultures were then fixed in formaldehyde and immunostained using anti-MAP-2 antibody. The area occupied by MAP-2^+ neurons was assessed using ImageJ.
as §3

interleukin-10 (IL-10) = conditions: in vivo; cited from earlier work
[7] = in humans; cited from earlier work

NC(=O)c1ccc[n+]([C@@H]2O[C@H](COP(=O)([O-])OP(=O)(O)OC[C@H]3O[C@@H](n4cnc5c(N)ncnc54)[C@H](O)[C@@H]3O)[C@@H](O)[C@H]2O)c1 [NAD^+, nicotinamide adenine dinucleotide]
concentration at which the neuroprotective effect was exerted (dopaminergic neurons): 3 mM
number of midbrain DA (TH^+) neurons ([1]; 10 DIV cultures chronically exposed): increased the number of midbrain DA (TH^+) neurons
neuroprotective effect in the presence of Ned-19 ([1]; Ned-19 2 μM): slightly but significantly
TH^+ neurons saved from death after GDNF deprivation (DA (TH^+) neurons [2]): saved from death
glucose uptake (cortical neurons [3]): only modestly increased glucose uptake
protection from oxidative stress (cortical neurons [4]): protected from oxidative stress
neuroprotective effect in the presence of Ex-527 (DA (TH^+) neurons [5]; Ex-527 100 μM, HB7 1 μg/mL, NAD^+ 3 mM, MPP^+ model): only antagonized
MPP^+-induced DA cell loss (DA (TH^+) neurons [5]; MPP^+ 3 μM between 5 and 7 DIV, NAD^+ 3 mM, antibodies 1 μg/mL): either partially or almost totally prevented
neuroprotective effect in the presence of dantrolene (DA (TH^+) neurons [5]; dantrolene 30 μM (FIG. 9), HB7 1 μg/mL, NAD^+ 3 mM, cADPR 200 μM, MPP^+ model): only antagonized
protection from excitotoxicity (cortical neurons [6]): protected from excitotoxicity

isatuximab: anti-CD38 antibody
plasma levels of anti-inflammatory interleukin-10 (IL-10) (interleukin-10 (IL-10)): decrease

daratumumab: anti-CD38 antibody approved for the treatment of multiple myeloma
plasma levels of anti-inflammatory interleukin-10 (IL-10) (interleukin-10 (IL-10)): decrease

NC(=O)c1ccc[n+]([C@@H]2O[C@H](COP(=O)(O)OP(=O)([O-])OC[C@H]3O[C@@H](n4cnc5c(N)ncnc54)[C@H](O)[C@@H]3O)[C@@H](O)[C@@H]2F)c1 [ARA-F-NAD, ara-2′-deoxy-2′-fluoro-nicotinamide adenine dinucleotide]
MPP^+-induced DA cell loss (DA (TH^+) neurons [5]; ARA-F-NAD 200 μM during the intoxication period, MPP^+ 3 μM): almost totally prevented
neuroprotective effect in the presence of Ned-19 (DA (TH^+) neurons [5]; ARA-F-NAD 200 μM, Ned-19 2 μM): abolished

B1: ABBV-8E12: intravenously injected monoclonal antibody cited for its brain/plasma ratio in humans (antibody, chains of the INN, looked up, V domains shown)
VH: EVKVVESGGGLVQPGGSMKLSCVVSGFTFSNYWVNWVRQAPGKGLEWVAQIRLKSDNYATHYEESVKGRFTISRDDSKSSVYLQMNNLRAEDSGIYYCTNWEDYWGQGTTVTVSS
VL: DIVLTQSPDSLAVSLGERATISCRASQSVSTSRYSYIHWYQQKPGQPPKLLIKYASNLESGVPSRFSGSGSGTDFTLNIHPLEPEDFATYYCHHSWEIPLTFGQGTKLEIK
Brain/plasma ratio [7]: 0.385%
